The values below come from patent US9132171B2, “Test of insulin as a drug to reduce restenosis of vessels” (WISCONSIN ALUMNI RESEARCH FOUNDATION, priority 2012, dated 2015).

The test system of one test is IGF-2BP3. Nature of the test: mRNA expression array analysis of TGFbeta/Smad3-treated SMCs. It is filed as cell-based, mouse. Particulars: data not shown. The text has this:
Cell Culture. Aortic SMCs were isolated from mouse (MOVAS) aortas. Rat aortic fibroblasts were isolated as previously described by Pagano et al., Localization of a constitutively active, phagocyte-like NADPH oxidase in rabbit aortic adventitia: enhancement by angiotensin II, Proc. Natl. Acad. Sci. USA. December 23; 94(26):14483-8 (1997), incorporated herein by reference as if set forth in its entirety, and used to visualize collagen secretion into growth media. These cells were transfected with green fluorescent protein (GFP) and SMAD3 adenoviral vectors expressing Smad3 (AdSmad3) and GFP (AdGFP), constructed as previously described in Ryer, E. et al., Arterioscler Thromb Vasc Biol. 26:780-786, 2006, incorporated herein by reference as if set forth in its entirety. Adenoviral vector expressing GFP was used as a control (AdGFP).
CTGF and IGF-2 are present in the CM derived from SMCs that overexpress Smad3 (FIGS. 2A and B respectively).

In test [1] the test system is Smad3-expressing smooth muscle cells (SMCs). Kind of test: MTT cell proliferation assay. It counts as cell-based, rat. Conditions: insulin 1 μg/ml, TGF-beta 5 ng/ml, 96 hours. As for the experimental part: FIG. 7 illustrates a MTT proliferation assay of Smad3-expressing smooth muscle cells (SMCs) at 96 hours after treatment with TGF-beta (5 ng/ml) or TGF beta (5 ng/ml)+Insulin (1 μg/ml).
MTT cell proliferation assay was performed to visualize the effect of insulin on SMC proliferation. Smad3-transfected rat SMCs were stimulated with TGF-beta. Cells were then treated with 1 μg of insulin and the MTT assay was performed following 96 hours of treatment.
To determine whether insulin is sufficient for decreasing TGF-beta and Smad3-stimulated SMC proliferation, an MTT proliferation assay was carried out. Insulin abolished the TGF-beta-stimulated proliferation of Smad3-expressing SMCs (FIG. 7).
For orientation: Tetrazolium dyes change colour on reduction, which living cells bring about.

Test [2] has as its system left carotid artery balloon angioplasty. Kind of test: Balloon injury model with morphometric analysis. It counts as in vivo, rat. Conditions: periadventitial in Pluronic gel, 14 days after injury, relative to non-treated vessels. As for the experimental part:
In vivo studies conformed to the Guide for the Care and Use of Laboratory Animals published by the US National Institute of Health. Approval from the Institutional Animal Care and Use Committee was granted. Male Sprague-Dawley rats underwent angioplasty of the left common carotid artery. Periadventitial Insulin (1 microgram) along with CTGF (100 nanogram) suspended in 200 μL of Pluronic® gel was applied to the adventitial surface of the artery immediately after injury. Control animals were subjected to application of Pluronic® gel only. Fourteen days after injury, carotid was harvested utilizing perfusion fixation at physiological pressure of 100 mmHg.
Paraffin-embedded arteries were cut into 5 μm sections for analysis. Morphometric analysis was carried out on arteries stained with Haematoxilin and Eosin. For each animal, 10 sections were selected for analysis using digital software for Dell PC Computers (ImageJ and Photoshop V.7). The areas encompassed by the lumen surface (luminal area), […], internal elastic lamina-lumen surface (neointimal area), EEL-internal elastic lamina (medial area) and EEL length were measured. For evaluation of remodeling index, the EEL was measured and compared with that of controls. […]

A further test concerns vessels. Conditions: in vivo; cited from earlier work.
Another test has as its system rat aortic fibroblasts. Kind of test: Collagen III and I in culture medium of treated rat aortic fibroblasts (direct ELISA, Western blot). It counts as cell-based. Conditions: CTGF, insulin (1 ug) or both, 72 hours. As for the experimental part:
Collagen produced by rat fibroblasts was measured using Western blotting. […] GFP (control) and Smad3-transfected SMCs were starved for 24 hours in 0.5% serum DMEM medium and then treated with TGFbetal (5 ng/ml) for 48 hours. […] Thirty micrograms of proteins from each sample were separated on 10% SDS-PAGE gels. Protein samples were transferred to a polyvinylidene fluoride (PVDF) membrane. Rabbit anti-collagen type III (1:1000) and I (1:1000) (Fitzgerald) and goat-anti Rabbit (1:5000) were used as primary and secondary antibodies respectively to confirm immunoblotting. Conditioned medium was blotted parallel to unconditioned culture medium to rule out the possibility of presence of collagen in the former. Immunoblotting was carried out to visualize collagen I and III in culture medium after treating rat fibroblasts with CTGF (0.1 μg/ml) and IGF-2 (0.3 μg/ml) for 72 hours. These experiments were replicated using insulin in place of IGF-2. ELISA was used to detect the presence of IGF-2 and CTGF in the conditioned medium using the primary antibodies from Abcam® according to manufacturer's instructions. Fitzgerald Collagen I and III primary antibodies were used to visualize changes in collagen production in the fibroblast culture medium following treatment with CTGF and IGF small interfering RNA-(siRNA) transfected conditioned medium for 72 hours. […]
On the technique in general: An ELISA detects its analyte on a solid surface through an enzyme-linked reagent.

The test system of test [3] is balloon-injured blood vessels. Conditions: CTGF applied to balloon-injured vessels; cited from earlier work.
The test system of the next test is balloon-injured vessel. Nature of the test: Collagen I/III immunostaining of balloon-injured artery after perivascular CTGF. Conditions: CTGF 80 ng in 200 microliters Pluronic gel, 14 days after carotid artery injury. It counts as in vivo, rat. The text has this: FIG. 5 illustrates collagen subtype induction by CTGF in vivo. Arteries were injured and treated with recombinant CTGF as described in FIG. 2. Arterial sections, harvested at 14 days post-injury, were subsequently immunostained for either Type I (COLI) or Type III collagen (COLIII). (A) Representative tissue sections from solvent-(CTRL) or CTGF-treated arteries (CTGF). Negative controls were established by staining sections without primary antibodies to collagen. 100X (B) Semi-quantification of adventitial COLI or COLIII was carried out, and the effects of CTGF on COLI or COLIII were expressed as fold induction; n=6, *p<0.05 as compared to COLIII. […] FIG. 5B depicts CTGF-mediated differential production of collagens III and I when CTGF was applied around a balloon-injured vessel.

As to “TGFbeta: TGF-beta (5 ng/ml) used to treat Smad3-transfected SMCs”, the IGF-2BP3 increase is reported as 2.8 folds in the test with IGF-2BP3 (6 hours treatment) and 2.4 folds with IGF-2BP3 (48 hours treatment).

In the case of insulin, the “TGF-beta-stimulated proliferation of Smad3-expressing SMCs” value in test [1] is listed as “abolished”. In test [2], the “Increase in lumen size” value stood at 29.24% and the Neo-intimal growth entry is reported as “decreased neo-intimal growth”. For the same molecule, in the test with vessels, the “Cell migration into the intima” value was “inhibit cell migration into the intima”, the “Intima cell proliferation or apoptosis” value is given as “does not decrease” and the Re-endothelialization in vessels entry is recorded as “increase re-endothelialization”. In addition, in the test with rat aortic fibroblasts, the “Collagen III production in rat aortic fibroblasts” value is given as “some increase in collagen III”.

B1: Connective Tissue Growth Factor (protein, UniProt P29279 27-349, looked up)
CCN family member 2: QNCSGPCRCPDEPAPRCPAGVSLVLDGCGCCRVCAKQLGELCTERDPCDPHKGLFCHFGSPANRKIGVCTAKDGAPCIFGGTVYRSGESFQSSCKYQCTCLDGAVGCMPLCSMDVRLPSPDCPFPRRVKLPGKCCEEWVCDEPKDQTVVGPALAAYRLEDTFGPDPTMIRANCLVQTTEWSACSKTCGMGISTRVTNDNASCRLEKQSRLCMVRPCEADLEENIKKGKKCIRTPKISKPIKFELSGCTSMKTYRAKFCGVCTDGRCCTPHRTTTLPVEFKCPDGEVMKKNMMFIKTCACHYNCPGDNDIFESLYYRKMYGDMA
notes: soluble factor secreted by blood vessel adventitial cells
In the case of B1, the “Collagen III production in rat aortic fibroblasts” value with rat aortic fibroblasts is recorded as “some increase in collagen III”. Besides, the Lumen remodeling result in test [3] is “expansively remodeled”. For the same molecule, the “Adventitial collagen III versus collagen I” value with balloon-injured vessel is reported as “collagen III increased significantly more as compared to collagen I”.
